Drawing on patent publication US20250101001A1 (priority 2021, published 2025), this text covers EC50 and IC50 for 32 compounds.

Assay [1] concerns the target T1, 5-HT2A (Homo sapiens, UniProt P28223). In words: Serotonin 5-HT2A in vitro cellular IPOne agonism assay. The class given is cell-based. Further details: host or cells: CHO-K1. The note with it: CHO-K1 cells, IPOne HTRF, agonist mode. The protocol: Serotonin 5-HT2A In Vitro Cellular IPOne Agonism Assay. The 5-HT2A IPOne HTRF assay was performed at Epics Therapeutics S.A. (Belgium, FAST-0505I) using conventional methods. Briefly, CHO-K1 cells expressing human recombinant 5-HT2A receptor grown to mid-log phase in culture media without antibiotics were detached with PBS-EDTA, centrifuged, and resuspended in medium without antibiotics buffer. 20,000 cells are distributed in a 96 well plate and incubated overnight at 37° C. with 5% Co2.
For agonist testing, the medium was removed and […] of assay buffer plus 20 μl of test compound or reference agonist were added in each well. The plate was incubated for 60 min. at 37° C. with 5% CO2.
(§1) After addition of the lysis buffer containing IP1-d2 and anti-IP1 cryptate detection reagents, plates were incubated 1-hour at room temperature, and fluorescence ratios were measured according to the manufacturer specification, with the HTRF kit.

In assay [2] the target is T1, 5-HT2A. Kind of assay: Serotonin 5-HT2A in vitro radioligand binding competition assay ([3H]-DOI). The following applies: [3H]-DOI competition, membrane extracts. Also on record: purchased Epics Therapeutics S. A. (Belgium) FAST-0505B. The protocol:
Serotonin 5-HT2A In Vitro Radioligand Binding Competition Assay. The 5-HT2A radioligand binding competition assay was performed at Epics Therapeutics S. A. (Belgium, FAST-0505B) using conventional methods. Briefly, competition binding was performed in duplicate in the wells of a 96 well plate (Master Block, Greiner, 786201) containing binding buffer (optimized for each receptor), membrane extracts (amount of protein/well optimized for each receptor), radiotracer [^3H]-DOI (final concentration optimized for each receptor) and test compound. Nonspecific binding was determined by co-incubation with 200-fold excess of cold competitor. The samples were incubated in a final volume of 0.1 ml at a temperature and for a duration optimized for each receptor and then filtered over filter plates. Filters were washed six times with 0.5 ml of ice-cold washing buffer (optimized for each receptor) and 50 μl of Microscint 20 (Packard) were added in each well. The plates were incubated 15 min on an orbital shaker and then counted with a TopCount™ for 1 min/well.

For assay [3], the target named is T1, 5-HT2A. Kind of assay: Serotonin 5-HT2A in vitro cellular IPOne antagonism assay. The following applies: CHO-K1 cells, IPOne HTRF, reference agonist a-Me-5HT. Further details: host or cells: CHO-K1. The class given is cell-based. The protocol: Serotonin 5-HT2A and 5-HT2C In Vitro Cellular IPOne Antagonism Assay. The 5-HT2A and 5-HT2C IPOne HTRF assay was performed at Epics Therapeutics S.A. (Belgium, FAST-0505I) in antagonism mode using conventional methods. Briefly, CHO-K1 cells expressing human recombinant 5-HT2A or 5-HT2C receptor grown to mid-log phase in culture media without antibiotics were detached with PBS-EDTA, centrifuged, and resuspended in medium without antibiotics buffer. 20,000 cells were distributed in a 96 well plate and incubated overnight at 37° C. with 5% C02.
For antagonist testing, a reference agonist a-Me-5HT was added and fluorescence signal monitored for several minutes, followed by addition of 20 μlof assay buffer plus 20 μl of test compound or reference antagonist ketanserin, in each well. The plate was incubated for 60 min. at 37° C. with 5% CO2.
as §1
On the technique in general: In TR-FRET formats the signal depends on donor and acceptor labels being close together.

T1 sequence (P28223 whole entry): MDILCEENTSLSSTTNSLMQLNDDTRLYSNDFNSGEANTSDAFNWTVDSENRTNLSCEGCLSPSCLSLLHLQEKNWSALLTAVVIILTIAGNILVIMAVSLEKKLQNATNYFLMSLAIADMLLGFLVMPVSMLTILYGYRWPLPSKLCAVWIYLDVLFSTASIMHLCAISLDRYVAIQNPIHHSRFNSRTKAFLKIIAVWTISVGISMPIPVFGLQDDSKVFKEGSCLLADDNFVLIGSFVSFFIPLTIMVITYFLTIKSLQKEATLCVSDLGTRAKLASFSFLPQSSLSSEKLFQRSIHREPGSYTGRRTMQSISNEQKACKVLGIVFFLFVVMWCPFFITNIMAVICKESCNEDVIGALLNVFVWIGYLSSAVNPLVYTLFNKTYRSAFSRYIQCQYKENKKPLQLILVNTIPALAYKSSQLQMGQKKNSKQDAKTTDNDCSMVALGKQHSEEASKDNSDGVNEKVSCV

What is called EC50 is the midpoint of the concentration-response curve. Higher therefore signals lower potency in that assay. Usually IC50 stands for the point on the concentration scale where inhibition reaches its midpoint. Read a low IC50 as greater potency in that assay. On to `Cc1cn(C2CNC2)c2ccc(F)cc12` [Compound 1, 1-(azetidin-3-yl)-5-fluoro-3-methyl-1H-indole], for which the EC50 at 5-HT2A [1] was greater than 10 µM. In addition, the IC50 fell in the range of 101 to 1000 nM at 5-HT2A [2] and 1000 to 10000 nM at 5-HT2A [3].

`Fc1ccc2c(ccn2C2CNC2)c1F` [Compound 2, 1-(azetidin-3-yl)-4,5-difluoro-1H-indole]: the concentration giving a half-maximal response (EC50) at 5-HT2A [1] was greater than 10 µM. The IC50 on 5-HT2A [2] and on 5-HT2A [3] was 101 to 1000 nM each time.

In turn, `Cc1cn(C2CCNCC2)c2ccc(F)cc12` [Compound 3, 5-fluoro-3-methyl-1-(piperidin-4-yl)-1H-indole] registered a 50% effective concentration (EC50) at 5-HT2A [1] greater than 10 µM. The IC50 at 5-HT2A [2] and on 5-HT2A [3] was 101 to 1000 nM in each case.

With `Fc1ccc2c(ccn2C2CCNCC2)c1F` [Compound 4, 4,5-difluoro-1-(piperidin-4-yl)-1H-indole], the EC50 at 5-HT2A [1] is greater than 10 µM. In addition, the IC50 at 5-HT2A [2] and at 5-HT2A [3] was 101 to 1000 nM in each case.

In turn, `Cc1cn(C2CN(C)C2)c2ccc(F)cc12` [Compound 5, 5-fluoro-3-methyl-1-(1-methylazetidin-3-yl)-1H-indole] displayed an EC50 on 5-HT2A [1] greater than 10 µM. Further, the IC50 on 5-HT2A [2] fell in the range of 101 to 1000 nM; on 5-HT2A [3], 1000 to 10000 nM.

For the compound `CN1CC(n2ccc3c(F)c(F)ccc32)C1` [Compound 6, 4,5-Difluoro-1-(1-methylazetidin-3-yl)-1H-indole], at 5-HT2A [1], the EC50 was greater than 10 µM. The IC50 on 5-HT2A [2] and on 5-HT2A [3] was 101 to 1000 nM throughout.

For `Cc1cn(C2CCN(C)C2)c2ccc(F)cc12` (centres unmarked) [Compound 7, 5-Fluoro-3-methyl-1-(1-methylpyrrolidin-3-yl)-1H-indole], the EC50 at 5-HT2A [1] was greater than 10 µM. Moreover, the IC50 on 5-HT2A [2] and on 5-HT2A [3] was 1000 to 10000 nM throughout.

`CN1CCC(n2ccc3c(F)c(F)ccc32)C1` (centres unmarked) [Compound 8, 4,5-difluoro-1-(1-methylpyrrolidin-3-yl)-1H-indole] registered an EC50 on 5-HT2A [1] of 0.101 to 1 µM. Also, the IC50 on 5-HT2A [2] and on 5-HT2A [3] was 101 to 1000 nM each time.

For the compound `Cc1cn(C2CCN(C)CC2)c2ccc(F)cc12` [Compound 9, 5-fluoro-3-methyl-1-(1-methylpiperidin-4-yl)-1H-indole], the EC50 at 5-HT2A [1] was greater than 10 µM. In addition, the IC50 at 5-HT2A [2] and at 5-HT2A [3] was 101 to 1000 nM throughout.

For the compound `CN1CCC(n2ccc3c(F)c(F)ccc32)CC1` [Compound 10, 4,5-difluoro-1-(1-methylpiperidin-4-yl)-1H-indole], the half-maximal effective concentration (EC50) at 5-HT2A [1] is greater than 10 µM. Besides, the IC50 at 5-HT2A [2] and on 5-HT2A [3] was 101 to 1000 nM throughout.

On 5-HT2A [1], `CC(C)c1cn(C2CCN(C)C2)c2ccc(F)cc12` (centres unmarked) [Compound 11, 5-fluoro-3-isopropyl-1-(1-methylpyrrolidin-3-yl)-1H-indole] registered an EC50 greater than 10 µM. The figures for the IC50 on 5-HT2A [2] and at 5-HT2A [3] were 1000 to 10000 nM and 101 to 1000 nM, respectively.

For `CN1CCC(n2cc(-c3ccccc3)c3cc(F)ccc32)C1` (centres unmarked) [Compound 12, 5-fluoro-1-(1-methylpyrrolidin-3-yl)-3-phenyl-1H-indole], the EC50 on 5-HT2A [1] is greater than 10 µM. For the same compound, the IC50 at 5-HT2A [2] and on 5-HT2A [3] was 10 to 100 nM in each case.

On 5-HT2A [1], `Cc1cn(C2CCN(C)C2)c2ccc(OC3COC3)cc12` (centres unmarked) [Compound 13, 3-Methyl-1-(1-methylpyrrolidin-3-yl)-5-(oxetan-3-yloxy)-1H-indole] had an EC50 greater than 10 µM. Further, the half-maximal inhibitory concentration (IC50) at 5-HT2A [2] is greater than 10000 nM.

On to `Cc1cn(C2CCNC2)c2ccc(F)cc12` (centres unmarked) [Compound 14, 5-fluoro-3-methyl-1-(pyrrolidin-3-yl)-1H-indole], for which the EC50 at 5-HT2A [1] was 0.101 to 1 µM. Further, the concentration for half-maximal inhibition (IC50) on 5-HT2A [2] and on 5-HT2A [3] was 101 to 1000 nM throughout.

Take `Fc1ccc2c(ccn2C2CCNC2)c1F` (centres unmarked) [Compound 15, 4,5-Difluoro-1-(pyrrolidin-3-yl)-1H-indole]: the EC50 on 5-HT2A [1] fell in the range of 0.101 to 1 µM. In addition, the IC50 on 5-HT2A [2] and at 5-HT2A [3] was 101 to 1000 nM each time.

Turning to `CCN1CCC(n2cc(C)c3cc(F)ccc32)C1` (centres unmarked) [Compound 16, 1-(1-Ethylpyrrolidin-3-yl)-5-fluoro-3-methyl-1H-indole], the EC50 at 5-HT2A [1] is greater than 10 µM. This compound also yielded an IC50 at 5-HT2A [2] of 1000 to 10000 nM.

As to `CCN1CCC(n2ccc3c(F)c(F)ccc32)C1` (centres unmarked) [Compound 17, 1-(1-ethylpyrrolidin-3-yl)-4,5-difluoro-1H-indole], at 5-HT2A [1], the EC50 was greater than 10 µM. Besides, the 50% inhibitory concentration (IC50) on 5-HT2A [2] and on 5-HT2A [3] was 1000 to 10000 nM throughout.

In the case of `Cc1cn(C2CCN(C(C)C)C2)c2ccc(F)cc12` (centres unmarked) [Compound 18, 5-fluoro-1-(1-isopropylpyrrolidin-3-yl)-3-methyl-1H-indole], the EC50 at 5-HT2A [1] was greater than 10 µM. This compound displayed an IC50 at 5-HT2A [2] of 1000 to 10000 nM.

In the case of `CC(C)N1CCC(n2ccc3c(F)c(F)ccc32)C1` (centres unmarked) [Compound 19, 4,5-difluoro-1-(1-isopropylpyrrolidin-3-yl)-1H-indole], the EC50 on 5-HT2A [1] is greater than 10 µM. Besides, the IC50 on 5-HT2A [2] is 1000 to 10000 nM.

Turning to `Cc1cn(C2CCN(C3COC3)C2)c2ccc(F)cc12` (centres unmarked) [Compound 20, 5-fluoro-3-methyl-1-(1-(oxetan-3-yl)pyrrolidin-3-yl)-1H-indole], the half-maximal effective concentration (EC50) on 5-HT2A [1] is greater than 10 µM. The IC50 on 5-HT2A [2] is greater than 10000 nM.

Consider `Fc1ccc2c(ccn2C2CCN(C3COC3)C2)c1F` (centres unmarked) [Compound 21, 4,5-difluoro-1-(1-(oxetan-3-yl)pyrrolidin-3-yl)-1H-indole], for which, on 5-HT2A [1], the half-maximal effective concentration (EC50) was greater than 10 µM. The concentration for half-maximal inhibition (IC50) on 5-HT2A [2] was greater than 10000 nM.

At 5-HT2A [1], `COCCN1CCC(n2cc(C)c3cc(F)ccc32)C1` (centres unmarked) [Compound 22, 5-Fluoro-1-(1-(2-methoxyethyl)pyrrolidin-3-yl)-3-methyl-1H-indole] came in with a concentration for a half-maximal effect (EC50) greater than 10 µM. Moreover, the IC50 on 5-HT2A [2] lay in the range of 1000 to 10000 nM.

`COCCN1CCC(n2ccc3c(F)c(F)ccc32)C1` (centres unmarked) [Compound 23, 4,5-Difluoro-1-(1-(2-methoxyethyl)pyrrolidin-3-yl)-1H-indole] showed an EC50 at 5-HT2A [1] greater than 10 µM. Further, the 50% inhibitory concentration (IC50) at 5-HT2A [2] and at 5-HT2A [3] was 1000 to 10000 nM each time.

In the case of `Clc1ccc2c(ccn2C2CNC2)c1` [Compound 24, 1-(azetidin-3-yl)-5-chloro-1H-indole], the EC50 at 5-HT2A [1] is greater than 10 µM. Moreover, the IC50 on 5-HT2A [2] lay in the range of 1000 to 10000 nM; on 5-HT2A [3], 101 to 1000 nM.

With `N#Cc1ccc2c(ccn2C2CNC2)c1` [Compound 25, 1-(azetidin-3-yl)-1H-indole-5-carbonitrile], at 5-HT2A [1], the EC50 is greater than 10 µM. In addition, the IC50 on 5-HT2A [2] and on 5-HT2A [3] was greater than 10000 nM each time.

As for `Fc1cccc2ccn(C3CNC3)c12` [Compound 26, 1-(azetidin-3-yl)-7-fluoro-1H-indole], the EC50 at 5-HT2A [1] is 1 to 10 µM. Further, the half-maximal inhibitory concentration (IC50) on 5-HT2A [2] and on 5-HT2A [3] was 1000 to 10000 nM in each case.

At 5-HT2A [1], `Fc1ccc2c(ccn2C2CNC2)c1` [Compound 27, 1-(azetidin-3-yl)-5-fluoro-1H-indole] gave an EC50 greater than 10 µM. Besides, the IC50 at 5-HT2A [2] and on 5-HT2A [3] was 101 to 1000 nM in each case.

`Fc1ccc2ccn(C3CNC3)c2c1` [Compound 28, 1-(azetidin-3-yl)-6-fluoro-1H-indole]: the 50% effective concentration (EC50) on 5-HT2A [1] is greater than 10 µM. Moreover, the half-inhibitory concentration (IC50) at 5-HT2A [2] and at 5-HT2A [3] was 101 to 1000 nM throughout.

At 5-HT2A [1], `COc1ccc2c(ccn2C2CNC2)c1` [Compound 29, 1-(azetidin-3-yl)-5-methoxy-1H-indole] showed a concentration giving a half-maximal response (EC50) greater than 10 µM. Further, the IC50 at 5-HT2A [2] and at 5-HT2A [3] was greater than 10000 nM throughout.

As to `CN1CC(n2ccc3cc(F)ccc32)C1` [Compound 30, 5-fluoro-1-(1-methylazetidin-3-yl)-1H-indole], the EC50 on 5-HT2A [1] was greater than 10 µM. Moreover, the IC50 at 5-HT2A [2] and on 5-HT2A [3] was 101 to 1000 nM throughout.

`COc1ccc2c(ccn2C2CN(C)C2)c1` [Compound 31, 5-methoxy-1-(1-methylazetidin-3-yl)-1H-indole] displayed an EC50 on 5-HT2A [1] greater than 10 µM. Moreover, the IC50 at 5-HT2A [2] and at 5-HT2A [3] was greater than 10000 nM each time.

The compound `CN1CC(n2ccc3c(F)cccc32)C1` [Compound 32, 4-fluoro-1-(1-methylazetidin-3-yl)-1H-indole] showed an EC50 at 5-HT2A [1] greater than 10 µM. The IC50 at 5-HT2A [2] and at 5-HT2A [3] was 101 to 1000 nM each time.
